From US20080269241A1, “BICYCLIC AMINOPROPYL TETRAHYDRO-PYRAZOLO-PYRIDINE MODULATORS OF CATHEPSIN S” (priority 2007, published 2008)

The compounds below were run against T1, human cathepsin S (CatS) (Homo sapiens, UniProt P25774) (assay: Recombinant human cathepsin S (CatS) fluorogenic substrate inhibition assay). Conditions: recombinant human CatS, 10 μM Z-Valine-Valine-Arginine-AMC, pH 5.0; average of results obtained; read-out: CatS IC50.
T1 construct: made in house; host or cells: baculovirus system (insect cells)
Assay type: biochemical
Description: Recombinant human cathepsin S (CatS) was expressed in the baculovirus system and purified in one step with a thiopropyl-sepharose column. […] The assay is run in 150 mM sodium acetate pH 5.0 containing 1.5 mM DTT and 150 mM NaCl. […] Measurements are taken every min for 20 min. The rate is calculated from the slope of the increase in fluorescence and the percent inhibition is calculated from this.

T1 sequence (P25774 115-331): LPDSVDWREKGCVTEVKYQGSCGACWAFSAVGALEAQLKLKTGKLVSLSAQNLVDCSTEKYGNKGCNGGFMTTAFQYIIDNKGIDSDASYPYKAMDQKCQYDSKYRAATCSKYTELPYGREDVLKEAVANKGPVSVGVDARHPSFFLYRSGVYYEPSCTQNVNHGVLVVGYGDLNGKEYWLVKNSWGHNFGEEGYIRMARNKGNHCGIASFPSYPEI

| Structure (SMILES) | IC50 [nM] |
| --- | --- |
| CS(=O)(=O)N1CCc2c(c(-c3ccc(C(F)(F)F)c(CNC(=O)c4cc5c(s4)CCC5)c3)nn2CC(O)CN2CCC(N3CCCC3=O)CC2)C1 (centres unmarked) [Example 50, 5,6-Dihydro-4H-cyclopenta[b]thiophene-2-carboxylic acid 5-(1-{2-hydroxy-3-[4-(2-oxo-pyrrolidin-1-yl)-piperidin-1-yl]-propyl}-5-methanesulfonyl-4,5,6,7-tetrahydro-1H-pyrazolo[4,3-c]pyridin-3-yl)-2-trifluoromethyl-benzylamide] | 30 |
| Cc1nnsc1C(=O)NCc1cc(-c2nn(CC(O)CN3CCC(N4CCCC4=O)CC3)c3c2CN(S(C)(=O)=O)CC3)ccc1C(F)(F)F (centres unmarked) [Example 51, 4-Methyl-[1,2,3]thiadiazole-5-carboxylic acid 5-(1-{2-hydroxy-3-[4-(2-oxo-pyrrolidin-1-yl)-piperidin-1-yl]-propyl}-5-methanesulfonyl-4,5,6,7-tetrahydro-1H-pyrazolo[4,3-c]pyridin-3-yl)-2-trifluoromethyl-benzylamide] | 200 |
| CS(=O)(=O)N1CCc2c(c(-c3ccc(C(F)(F)F)c(CNC(=O)c4ccco4)c3)nn2CC(O)CN2CCC(N3CCCC3=O)CC2)C1 (centres unmarked) [Example 52, Furan-2-carboxylic acid 5-(1-{2-hydroxy-3-[4-(2-oxo-pyrrolidin-1-yl)-piperidin-1-yl]-propyl}-5-methanesulfonyl-4,5,6,7-tetrahydro-1H-pyrazolo[4,3-c]pyridin-3-yl)-2-trifluoromethyl-benzylamide] | 190 |
| CS(=O)(=O)N1CCc2c(c(-c3ccc(C(F)(F)F)c(CNC(=O)c4ccccn4)c3)nn2CC(O)CN2CCC(N3CCCC3=O)CC2)C1 (centres unmarked) [Example 53, Pyridine-2-carboxylic acid 5-(1-{2-hydroxy-3-[4-(2-oxo-pyrrolidin-1-yl)-piperidin-1-yl]-propyl}-5-methanesulfonyl-4,5,6,7-tetrahydro-1H-pyrazolo[4,3-c]pyridin-3-yl)-2-trifluoromethyl-benzylamide] | 190 |
| CS(=O)(=O)N1CCc2c(c(-c3ccc(C(F)(F)F)c(CNC(=O)c4ccc(C(F)(F)F)nc4)c3)nn2CC(O)CN2CCC(N3CCCC3=O)CC2)C1 (centres unmarked) [Example 54, N-[5-(1-{2-Hydroxy-3-[4-(2-oxo-pyrrolidin-1-yl)-piperidin-1-yl]-propyl}-5-methanesulfonyl-4,5,6,7-tetrahydro-1H-pyrazolo[4,3-c]pyridin-3-yl)-2-trifluoromethyl-benzyl]-6-trifluoromethyl-nicotinamide] | 70 |
| CS(=O)(=O)N1CCc2c(c(-c3ccc(C(F)(F)F)c(CNC(=O)/C=C/c4ccccc4)c3)nn2CC(O)CN2CCC(N3CCCC3=O)CC2)C1 (centres unmarked) [Example 55, N-[5-(1-{2-Hydroxy-3-[4-(2-oxo-pyrrolidin-1-yl)-piperidin-1-yl]-propyl}-5-methanesulfonyl-4,5,6,7-tetrahydro-1H-pyrazolo[4,3-c]pyridin-3-yl)-2-trifluoromethyl-benzyl]-3-phenyl-acrylamide] | 320 |
| CS(=O)(=O)N1CCc2c(c(-c3ccc(Cl)c(CNC(=O)c4ccc(F)cc4)c3)nn2CC(O)CN2CCC(N3CCCCC3=O)CC2)C1 (centres unmarked) [Example 72, N-(2-Chloro-5-{1-[2-hydroxy-3-(2-oxo-[1,4′]bipiperidinyl-1′-yl)-propyl]-5-methanesulfonyl-4,5,6,7-tetrahydro-1H-pyrazolo[4,3-c]pyridin-3-yl}-benzyl)-4-fluoro-benzamide] | 10 |
| CN(C)c1ccc2c(n1)n(C1CCN(CC(O)Cn3nc(-c4ccc(Cl)c(CNC(=O)c5ccc(F)cc5)c4)c4c3CCN(S(C)(=O)=O)C4)CC1)c(=O)n2C (centres unmarked) [Example 76, N-[2-Chloro-5-(1-{3-[4-(5-dimethylamino-1-methyl-2-oxo-1,2-dihydroimidazo[4,5-b]pyridin-3-yl)-piperidin-1-yl]-2-hydroxy-propyl}-5-methanesulfonyl-4,5,6,7-tetrahydro-1H-pyrazolo[4,3-c]pyridin-3-yl)-benzyl]-4-fluoro-benzamide] | 10 |
| CS(=O)(=O)N1CCc2c(c(-c3ccc(Cl)c(CNC(=O)c4ccc(F)cc4)c3)nn2CC(O)CN2CCC(N3CCOCC3)CC2)C1 (centres unmarked) [Example 79, N-(2-Chloro-5-{1-[2-hydroxy-3-(4-morpholin-4-yl-piperidin-1-yl)-propyl]-5-methanesulfonyl-4,5,6,7-tetrahydro-1H-pyrazolo[4,3-c]pyridin-3-yl}-benzyl)-4-fluoro-benzamide] | 60 |
| CS(=O)(=O)N1CCc2c(c(-c3ccc(C(F)(F)F)c(CNC(=O)c4ccc(F)cc4O)c3)nn2CC(O)CN2CCC(N3CCCC3=O)CC2)C1 (centres unmarked) [Example 104, 4-Fluoro-2-hydroxy-N-[5-(1-{2-hydroxy-3-[4-(2-oxo-pyrrolidin-1-yl)-piperidin-1-yl]-propyl}-5-methanesulfonyl-4,5,6,7-tetrahydro-1H-pyrazolo[4,3-c]pyridin-3-yl)-2-trifluoromethyl-benzyl]-benzamide] | 60 |
| CS(=O)(=O)N1CCc2c(c(-c3ccc(C(F)(F)F)c(CNC(=O)c4cccs4)c3)nn2CC(O)CN2CCC(N3CCCC3=O)CC2)C1 (centres unmarked) [Example 105, Thiophene-2-carboxylic acid 5-(1-{2-hydroxy-3-[4-(2-oxo-pyrrolidin-1-yl)-piperidin-1-yl]-propyl}-5-methanesulfonyl-4,5,6,7-tetrahydro-1H-pyrazolo[4,3-c]pyridin-3-yl)-2-trifluoromethyl-benzylamide] | 40 |
| CS(=O)(=O)N1CCc2c(c(-c3ccc(C(F)(F)F)c(CNC(=O)c4cc5ccccc5s4)c3)nn2CC(O)CN2CCC(N3CCCC3=O)CC2)C1 (centres unmarked) [Example 106, Benzo[b]thiophene-2-carboxylic acid 5-(1-{2-hydroxy-3-[4-(2-oxo-pyrrolidin-1-yl)-piperidin-1-yl]-propyl}-5-methanesulfonyl-4,5,6,7-tetrahydro-1H-pyrazolo[4,3-c]pyridin-3-yl)-2-trifluoromethyl-benzylamide] | 60 |
| CS(=O)(=O)N1CCc2c(c(-c3ccc(C(F)(F)F)c(CNC(=O)c4ccc(CO)cc4)c3)nn2CC(O)CN2CCC(N3CCCC3=O)CC2)C1 (centres unmarked) [Example 107, 4-Hydroxymethyl-N-[5-(1-{2-hydroxy-3-[4-(2-oxo-pyrrolidin-1-yl)-piperidin-1-yl]-propyl}-5-methanesulfonyl-4,5,6,7-tetrahydro-1H-pyrazolo[4,3-c]pyridin-3-yl)-2-trifluoromethyl-benzyl]-benzamide] | 70 |
| CS(=O)(=O)N1CCc2c(c(-c3ccc(C(F)(F)F)c(CNC(=O)CC4CCCC4)c3)nn2CCCN2CCC(N3CCCC3=O)CC2)C1 [Example 108, 2-Cyclopentyl-N-[5-(5-methanesulfonyl-1-{3-[4-(2-oxo-pyrrolidin-1-yl)-piperidin-1-yl]-propyl}-4,5,6,7-tetrahydro-1H-pyrazolo[4,3-c]pyridin-3-yl)-2-trifluoromethyl-benzyl]-acetamide] | 80 |
| CC(=O)c1ccc(C(=O)NCc2cc(-c3nn(CC(O)CN4CCC(N5CCCC5=O)CC4)c4c3CN(S(C)(=O)=O)CC4)ccc2C(F)(F)F)s1 (centres unmarked) [Example 109, 5-Acetyl-thiophene-2-carboxylic acid 5-(1-{2-hydroxy-3-[4-(2-oxo-pyrrolidin-1-yl)-piperidin-1-yl]-propyl}-5-methanesulfonyl-4,5,6,7-tetrahydro-1H-pyrazolo[4,3-c]pyridin-3-yl)-2-trifluoromethyl-benzylamide] | 80 |
| CCCC(=O)NCc1cc(-c2nn(CCCN3CCC(N4CCCC4=O)CC3)c3c2CN(S(C)(=O)=O)CC3)ccc1C(F)(F)F [Example 110, N-[5-(5-Methanesulfonyl-1-{3-[4-(2-oxo-pyrrolidin-1-yl)-piperidin-1-yl]-propyl}-4,5,6,7-tetrahydro-1H-pyrazolo[4,3-c]pyridin-3-yl)-2-trifluoromethyl-benzyl]-butyramide] | 90 |
| CS(=O)(=O)N1CCc2c(c(-c3ccc(C(F)(F)F)c(CNC(=O)CC4CCCCC4)c3)nn2CCCN2CCC(N3CCCC3=O)CC2)C1 [Example 111, 2-Cyclohexyl-N-[5-(5-methanesulfonyl-1-{3-[4-(2-oxo-pyrrolidin-1-yl)-piperidin-1-yl]-propyl}-4,5,6,7-tetrahydro-1H-pyrazolo[4,3-c]pyridin-3-yl)-2-trifluoromethyl-benzyl]-acetamide] | 100 |
| CS(=O)(=O)N1CCc2c(c(-c3ccc(C(F)(F)F)c(CNC(=O)N4CCCCC4)c3)nn2CC(O)CN2CCC(N3CCCC3=O)CC2)C1 (centres unmarked) [Example 112, Piperidine-1-carboxylic acid 5-(1-{2-hydroxy-3-[4-(2-oxo-pyrrolidin-1-yl)-piperidin-1-yl]-propyl}-5-methanesulfonyl-4,5,6,7-tetrahydro-1H-pyrazolo[4,3-c]pyridin-3-yl)-2-trifluoromethyl-benzylamide] | 100 |
| CS(=O)(=O)N1CCc2c(c(-c3ccc(C(F)(F)F)c(CNC(=O)c4cscn4)c3)nn2CC(O)CN2CCC(N3CCCC3=O)CC2)C1 (centres unmarked) [Example 114, Thiazole-4-carboxylic acid 5-(1-{2-hydroxy-3-[4-(2-oxo-pyrrolidin-1-yl)-piperidin-1-yl]-propyl}-5-methanesulfonyl-4,5,6,7-tetrahydro-1H-pyrazolo[4,3-c]pyridin-3-yl)-2-trifluoromethyl-benzylamide] | 100 |
| CS(=O)(=O)c1ccc(C(=O)NCc2cc(-c3nn(CC(O)CN4CCC(N5CCCC5=O)CC4)c4c3CN(S(C)(=O)=O)CC4)ccc2C(F)(F)F)s1 (centres unmarked) [Example 119, 5-Methanesulfonyl-thiophene-2-carboxylic acid 5-(1-{2-hydroxy-3-[4-(2-oxo-pyrrolidin-1-yl)-piperidin-1-yl]-propyl}-5-methanesulfonyl-4,5,6,7-tetrahydro-1H-pyrazolo[4,3-c]pyridin-3-yl)-2-trifluoromethyl-benzylamide] | 140 |
